Patent publication US9439928B2, “Method for combined conditioning and chemoselection in a single cycle” (THE REGENTS OF THE UNIVERSITY OF CALIFORNIA, priority 2011, dated 2016)
Read-outs that look alike come from different tables or passages of the source.

Assays:
[1] = system: BM of HPRT-wt recipients of HPRT-deficient BM; assay: Immunophenotypic analysis of BM at 4, 7 and 12 months post-transplantation with 6TG conditioning and chemoselection; format: in vivo, mice; settings: 12 months post-transplantation
Description: The relative percentages of CD4+ and CD8+ cells, B220+ cells, and Mac-1+/Gr1+ cells, as well as KLS (lin^−/sca-1^+/c-kit^+) HSC, were determined in BM by immunophenotyping at 4 months, 7 months, and 12 months (Table 6), and compared to treatment-naïve female HPRT-wt (Table 2) and treatment-naïve male HPRT-deficient (Table 3) control mice. […] Thus, HPRT-deficient donor-derived marrow was able to achieve long-term reconstitution of normal hematopoiesis for at least 12 months post-transplantation.

[2] = system: secondary female recipients of HPRT-deficient male donor BM; assay: Serial transplantation into secondary recipients with 6TG conditioning and chemoselection; format: in vivo, mice
Excerpt: To further evaluate whether the optimized regimen combining 6TG conditioning with chemoselection selects for long-term repopulating HSCs, we next transplanted BM from primary recipients at 7 months post-transplantation into secondary recipients using the same regimen. The secondary transplant recipients were then maintained for 3 months after the end of their 4-week course of 6TG in vivo chemoselection (Supplementary Figure S3). After 6TG conditioning and chemoselection, HPRT-deficient male donor cells that had engrafted primary recipients were able to serially repopulate secondary female recipients at high levels, (95.5%±1.1%, as determined by XY-FISH).

[3] = system: BM of HPRT-deficient mice; settings: mouse, in vivo, 10 mg/kg
Description: (§1) C57BL/6J and B6.129P2-Hprt1^b-m3/J mice were injected intraperitoneally (i.p.) with 200 μl of varying doses of 6TG (Sigma-Aldrich, Saint Louis, Mo.) at different time points as described in the figure legends. Control animals were i.p. injected with 200 μl of sterile H2O.
After blocking with Mouse BD Fc Block (BD Biosciences, San Jose, Calif.), BM, PBL, thymus, or spleen cells were stained with FITC-, PE-, PerCP- or APC-conjugated rat anti-mouse antibodies against CD45, CD45.2, CD4, CD8, Mac1/Gr1, B220, Sca-1, c-kit, and lineage antibody cocktail. Antibodies were received from Biolegend (San Diego, Calif.) or BD Biosciences. Flow cytometric data were acquired on a BD LSRII running BD FACSDiva (BD Biosciences) and analyzed using FlowJo software (TreeStar, Ashland, Oreg.) (Supplementary Figure S2).

[4] = system: HPRT-wt female recipients of HPRT-deficient male BM; settings: for donor-derived BM engraftment, XY-FISH / donor-derived PBL, XY-FISH: 5 mg/kg x 4 weeks regimen
Description: Female recipient C57BL/6J (HPRT-wt) or B6.SJL-Ptprc^aPepc^b/BoyJ (HPRT-wt, CD45.1) mice were treated with 10 mg/kg 6TG by i.p. injection 48 hrs before HSCT. For HSCT, 0.8-1×10^7 nucleated BM cells isolated from B6.129P2-Hprt1^b-m3/J male mice (CD45.21 were intravenously injected into HPRT-wt recipients. 6TG (10 mg/kg) was again administered by i.p. injection 2 hrs later, and every 3 days thereafter, at 5 mg/kg for 4 weeks. Serial transplantation into secondary recipient mice was performed using the same cell dose and 6TG preconditioning/chemoselection regimen as above, but using BM from primary recipient mice that had undergone transplantation with 6TG in vivo chemoselection 6 months previously.
FISH was performed on BM and PBL cells using the mouse-specific Whole Chromosome-Y paint probe/RAB9 (XqF1) DNA probes mix (Kreatech, Amsterdam, Netherlands) according to the manufacturer's protocol. To determine the percentage of male donor HPRT-wt cells in the female recipient C57BL/6J mice, 200 nuclei per slide were counted using a fluorescence microscope (Zeiss) equipped with appropriate dual and triple-colour filters.
Accordingly, female HPRT-wt mice were preconditioned with 6TG (10 mg/kg i.p.), with one dose administered 48 hours prior (Day −2) and one dose administered on the day of transplantation (Day 0) per the conditioning schedule established previously. […] Analysis was performed immediately after the in vivo chemoselection period at 2 weeks or 4 weeks, respectively (FIG. 4).

[5] = cited from earlier work
[6] = system: Hprt-shRNA transduced hematopoietic cells; settings: total body irradiation preconditioning; 6TG 0.25-2 mg/kg, short periods, started 4 weeks or more after transplantation; cited from earlier work
HPRT-deficient mice = assay: Chronic low-dose 6TG treatment in HPRT-deficient mice
Description: as §1
Necropsy of all mice used in this study and histological examination of all thoracic and abdominal organs and bone marrow was performed by the UCLA Division of Laboratory Animal Medicine Diagnostic Service Laboratory. Tissues were routinely processed or decalcified if necessary, and paraffin sections were cut and stained with hematoxylin and eosin (H&E).
HPRT-wt and HPRT-deficient mice (n=3 per group) were injected i.p. with vehicle alone, 0.25 mg/kg, 0.5 mg/kg, 1.0 mg/kg, 2.5 mg/kg, or 5.0 mg/kg 6TG every 3 days for up to 60 days.

[7] = secondary recipients, 3 months after end of 4-week chemoselection, mean ± SD, n=6
[8] = secondary recipients, % of total CD45+ cells, n=6
[9] = 4, 7 and 12 months after transplantation

Compound: Nc1nc2nc[nH]c2c(=S)[nH]1 [6TG, 6-thioguanine]
- B220+ cells, BM (%) ([1]; % of total CD45+ cells): 11.5 ± 2.8%
- CD4+ cells, BM (%) ([1]; % of total CD45+ cells): 2.8 ± 2.7%
- CD8+ cells, BM (%) ([1]; % of total CD45+ cells): 1.8 ± 0.6%
- KLS (HSC) cells, BM (%) ([1]; % of total CD45+ cells): 1.8 ± 0.6%
- Mac1+/Gr1+ cells, BM (%) ([1]; % of total CD45+ cells): 72.3 ± 5.4%
- CD45+ cells, BM (%) ([1]; mean ± SD): 82.5 ± 4.9%
- repopulation of secondary female recipients by HPRT-deficient male donor cells, XY-FISH ([2]; BM from primary recipients at 7 months, same 6TG regimen): 95.5%±1.1
- CD45+ cells, BM (%) [2, 7]: 84.6 ± 4.7%
- CD45+ cells, PBL (%) [2, 7]: 95.8 ± 1.4%
- B220+ cells, BM (%) [2, 8]: 19.1 ± 2.9%
- B220+ cells, PBL (%) [2, 8]: 33.3 ± 12.3%
- CD4+ cells, BM (%) [2, 8]: 4.1 ± 1.0%
- CD4+ cells, PBL (%) [2, 8]: 7.0 ± 3.3%
- CD8+ cells, BM (%) [2, 8]: 2.4 ± 0.8%
- CD8+ cells, PBL (%) [2, 8]: 7.0 ± 3.2%
- Mac1+/Gr1+ cells, BM (%) [2, 8]: 78.3 ± 4.7%
- Mac1+/Gr1+ cells, PBL (%) [2, 8]: 31.6 ± 11.7%
- B220+ cells in BM [3]: 10.7 ± 3.5%
- BM histology (H&E) [3]: completely unaffected
- CD4+ cells in BM [3]: 2.9 ± 1.7%
- CD8+ cells in BM [3]: 2.7 ± 0.4%
- CD45+ cells in BM [3]: 90.0 ± 2.0%
- KLS (HSC) cells in BM [3]: 2.0 ± 0.6%
- Mac1+/Gr1+ cells in BM [3]: 79.3 ± 2.9%
- count of nucleated BM cells obtained from one femur and tibia [3]: 1.5×10^7±0.3×10^7
- donor-derived BM engraftment, XY-FISH ([4]; 4 months after transplantation): 97.7%±0.5
- donor-derived PBL, XY-FISH ([4]; 4 months after transplantation, p=0.01): 67.4%±10.6
- donor-derived BM engraftment, XY-FISH ([4]; 7 months after transplantation): 94.7%±1.9
- donor-derived PBL, XY-FISH ([4]; 7 months after transplantation, p<0.01): 73.3%±7.9
- donor-derived BM engraftment, XY-FISH ([4]; 12 months after transplantation): 93.0%±0.8
- donor-derived PBL, XY-FISH ([4]; 12 months after transplantation, p<0.01): 73.0%±10.7
- gross pathological and histological examination [4, 9]: no significant abnormalities
- long-term condition of transplanted animals [4, 9]: remained alive and well
- replacement of the recipient BM ([4]; 6TG pre-conditioning and single cycle chemoselection): > 95%
- body weights ([4]; 6TG-treated transplanted animals): decreased initially during the first week after transplantation in the 6TG-treated animals, but stabilized and all animals regained normal weight thereafter
- engraftment of HPRT-deficient donor BM (XY-FISH), summary ([4]; combined 6TG conditioning and post transplant chemoselection): ~95%
- tolerability of combined 6TG conditioning, HSCT and in vivo chemoselection ([4]; mouse, in vivo): well-tolerated
- histopathology: overall cellularity and hematopoiesis of BM ([4]; regardless of 6TG chemoselection dosage or duration): indistinguishable from the untreated HPRT-wt control
- effect of high single oral dose ([5]; as much as 35 mg/kg in a single oral dose): reversible myelosuppression
- absorption after oral 6TG administration ([5]; oral, estimated): ~30%
- engraftment levels [6]: 5-50%
- survival (HPRT-deficient mice; 0.25-5.0 mg/kg 6TG every 3 days, up to 105 mg/kg total dose, 60 days): survived for the duration of the experiment
- histology of other tissues (heart, lung, liver, pancreas, kidney, spleen) (HPRT-deficient mice; chronic 6TG, Day 60): No significant treatment-related abnormalities
- BM pathology (HPRT-deficient mice; regardless of 6TG dosage, Day 60): No significant BM pathology
